Holding throughout (format): cell-based, mouse
The test system of experiment [1] is GPR37-tGFP. The experiment in a line: GPR37-tGFP translocation assay. The note with it: 72 h. The protocol:
FIG. 2. Schematic representation of the rationale and the basic steps of GPR37-translocation assay. A. GPR37 is prone to misfolding and aggregation, which, in metabolically-active cells, are followed by degradation and results in low levels of functional receptor in the plasma membrane. The primary targets of the screening assay are compounds that can directly or indirectly facilitate maturation and trafficking of GPR37 to the plasma membrane. B. N2a cells stably expressing GPR37-tGFP are seeded in poly-D-Lysine coated 384 well plates at density 5000 cells/well. 24 h later cells are treated with compounds, including positive and negative controls, and incubated for 72 h. Then cells are fixed with 4% PFA and additionally stained with Hoechst 33342 (nuclei) and HCS CellMask™ red (cell body) to enable segmentation of the plasma membrane. Acquisition of fluorescence images is done using ImageXpress high content screening system (Molecular Devices). Quantification of GPR37-tGFP levels in the plasma membrane is done using CellProfiler software. FIG. 3. Schematic representation of Image analysis pipeline and final outcome data. Segmentation of the plasma membrane is performed in five main steps: 1) identification of nuclei (primary objects) using nuclear stain, 2) determination of cell borders using primary objects as seeds and growing these objects in respect of tGFP and HCS CellMask™ fluorescence intensity (secondary objects), 3) shrinking and expending secondary objects, 4) subtraction of shrunken cells from expended cells which results in membrane segmentation (tertiary objects), 5) tGFP fluorescence intensity is calculated within tertiary objects. Z′ factor is a quality measure of an assay which describes how well separated positive and negative controls are. Assays having Z′ factors above 0.5 are considered good assays. N2a cells stably expressing GPR37-tGFP were seeded in 384 BDFalcon BioCoat Poly-D-Lysine coated plates at a density of 5000 cells/well, and 50 μL incubation volume of maintenance medium. Cells were incubated at 37° C., 5% CO2 using humidity chamber. 24 h later, the cells were treated with 10 μL of compounds of desired concentration, including positive (2 mM dibutyryl-cAMP+0.5 mM 4-phenylbutyrate) and negative controls (0.1% DMSO), and incubated for 72 h. Cells were fixed with 4% PFA by adding 20 μL of 16% PFA directly to cell medium, incubating for 20 min and washing with PBS-Tween20 (0.05%). Directly after fixation cells were stained for nuclei with Hoechst 33342 (0.01 mg/mL) and for cell bodies with HCS CellMask™ Red stain (Thermo Fisher Scientific Inc.) (0.001 mg/mL) by incubating with the dyes for 30 min in PBS-Tween20 (0.05%) followed by washing with PBS. All the additional steps, including cell seeding were performed using Multidrop Combi dispenser (Thermo Scientific) and washing steps were done by means of HydroSpeed™ plate washer (Tecan). The images were captured using ImageXpress Micro XLS Widefield High-Content Analysis System (Molecular Devices, LLC) in 3 fluorescent channels (ImageXpress filters are listed, followed by excitation/emission in nm): DAPI (387/447), FITC (482/536) and TexasRed (562/624). Binning 2 was applied during the acquisition and digital confocal option was used for FITC and TexasRed filters. Typically, 5 images were taken per well at magnification 20× and stored as 16 bit, gray scale tif files along with metadata in Oracle database, for further analysis. Quantification of GPR37-tGFP levels in the plasma membrane was done using CellProfiler™ software. CellProfiler™ is an open-source cell image analysis software available at www.cellprofiler.org. An image analysis pipeline used for membrane segmentation consisted of 5 main steps (FIG. 3): 1) segmentation of nuclei (primary objects); 2) segmentation of cell bodies (secondary objects); 3) shrinking and expending cell bodies; 4) subtraction of shrank cells from expanded cells (tertiary objects—membranes); 5) calculating tGFP fluorescence in the membranes. […]

In experiment [2] the test system is GPR37-tGFP overexpressing cells. In words: Cytoprotection against MG132, GPR37-tGFP overexpressing cells. The protocol:
FIG. 8: Cytoprotection of Idoxuridine against MG132. MG132-induced proteasomal inhibition reduced cell viability. […] Data represented as mean+SD. Analysis performed via one-way ANOVA with Neuman-Keuls post-test for both Figures. *** indicates p<0.001. 2 mM 4-PBA used as a positive unspecific control. MG132 is a potent 26S proteasome inhibitor which increases protein accumulation, ROS leakage, induces cell cycle arrest and apoptosis.

Experiment [3] concerns WT cells. The experiment in a line: Cytoprotection against H2O2, WT cells. Conditions: in-well H2O2 0.00025%. From the text:
FIG. 10: Cytoprotection of Idoxuridine against […]. H2O2 reduces cell viability by increasing oxidative stress. This effect was counteracted by idoxuridine in GPR37-tGFP overexpressing cells (A) and WT (B) cells. […] In-well H2O2 concentration used was 0.00025%. […]

This note sets out measurements from patent US11103525B2, “Idoxuridine and its analogs as neuroprotectans for the treatment of parkinsonism” (priority 2017, dated 2021).

SMILES strings stand for the structures. pEC50: −log10 of the molar value.

As for `O=c1[nH]c(=O)n([C@H]2C[C@H](O)[C@@H](CO)O2)cc1I` [Idoxuridine, 2′-deoxy-5-iodouridine], the “concentration up to which GPR37-tGFP level at the plasma membrane increases in a dose response manner” value in experiment [1] (dose response) is “around 5 μM”. Besides, in experiment [1] (dose response, read-out: concentration giving 50% activity of positive control (GPR37-tGFP level at the plasma membrane)), the pEC50 is around 6.00. In addition, the “GPR37-tGFP level in the plasma membrane, activity of positive control” value in experiment [1] (primary screen, 10 μM, positive control (dibutyryl-cAMP + 4-phenylbutyrate) = 100%) is given as “about 100%”. Also, in experiment [2], the “effect on MG132-induced reduction of cell viability” value was “potently counteracted”. For the same compound, the “effect on H2O2-induced reduction of cell viability” value in experiment [3] is listed as “counteracted”.
